Literature values in patent US20210017202A1, “SPHINGOMYELIN-DERIVED LIPID AND METHOD FOR PRODUCING SAME” (NOF CORPORATION, priority 2018, published 2021).

Conditions: liposome with cholesterol

For `CCCCCCCCCCCCCCCCCC(=O)OC[C@H](COP(=O)([O-])OCC[N+](C)(C)C)OC(=O)CCCCCCCCCCCCCCCCC` [distearoylglycerophosphocholine], the amount hydrolyzed (aqueous solution at pH2, 4 hr) is given as “about 40%”.
For sphingomyelin, the amount of hydrolysate (aqueous solution at pH2, after 20 hr) is given as “less than 5%”.
